These are literature values, as cited in patent publication US20110244050A1, “PULSED-RELEASE SILDENAFIL COMPOSITION AND METHOD FOR PREPARING SAID COMPOSITION” (SIEGFRIED RHEIN S.A. DE C.V., priority 2008, published 2011).

The conditions of data set [1]: in vivo.

In the case of `CCCc1nn(C)c2c(=O)[nH]c(-c3cc(S(=O)(=O)N4CCN(C)CC4)ccc3OCC)nc12` [sildenafil], the plasmatic elimination half-life result in data set [1] is listed as “about 4 hours”. The “solubility in acidic media” value (acidic media, like in the stomach) is reported as “adequate”. Besides, the “solubility in alkaline media” value (alkaline media, like that found in the intestine) is on record as “decreases markedly”.
